{
  "source": "PubChem BioAssay AID248",
  "about": "(DTP/NCI, 2004)",
  "tested_on": "L1210 leukemia ip in BDF1 mice, survival T/C",
  "test": "NCI In Vivo Anticancer Drug Screen. Data for tumor model L1210 Leukemia (intraperitoneal) in B6D2F1 (BDF1) mice",
  "conditions": "endpoint: mean survival time, higher = longer survival",
  "how_it_was_run": "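Antitumor effect is assessed in tumor-bearing animals. Survival in the compound arm is compared with a vehicle-dosed control arm and expressed as their quotient.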",
  "key": {"[1]": {"conditions": "dose: 50.0 mg/kg/injection, schedule: Q01DX009 (ip), vehicle: saline"}, "[2]": {"conditions": "dose: 100.0 mg/kg/injection, schedule: Q01DX009 (ip), vehicle: saline"}, "[3]": {"conditions": "dose: 200.0 mg/kg/injection, schedule: Q01DX009 (ip), vehicle: saline"}},
  "note": "Toxic doses and inconclusive results are not listed.",
  "data": [
    {"smiles": "C=C[CH2][Sn]([Br])([Br])[Br]", "values": [
      {"measurement": "T/C", "setting": "[1]", "value": "115 % of control"},
      {"measurement": "T/C", "setting": "[2]", "value": "95 % of control"},
      {"measurement": "T/C", "setting": "[3]", "value": "86 % of control"}
    ]},
    {"smiles": "C[N+](C)(C)CCCC#CC[N+]1(C)CCOCC1", "values": [
      {"measurement": "T/C", "setting": "dose: 8.4 mg/kg/injection, schedule: Q01DX009 (ip), vehicle: saline", "value": "151 % of control"},
      {"measurement": "T/C", "setting": "dose: 14.0 mg/kg/injection, schedule: Q01DX009 (ip), vehicle: saline", "value": "197 % of control"},
      {"measurement": "T/C", "setting": "dose: 39.0 mg/kg/injection, schedule: Q01DX009 (ip), vehicle: saline", "value": "96 % of control"},
      {"measurement": "T/C", "setting": "dose: 65.0 mg/kg/injection, schedule: Q07DX009 (ip), vehicle: saline", "value": "157 % of control"},
      {"measurement": "T/C", "setting": "dose: 108.0 mg/kg/injection, schedule: Q07DX009 (ip), vehicle: saline", "value": "190 % of control"},
      {"measurement": "T/C", "setting": "dose: 180.0 mg/kg/injection, schedule: Q07DX009 (ip), vehicle: saline", "value": "177 % of control"},
      {"measurement": "T/C", "setting": "dose: 300.0 mg/kg/injection, schedule: Q07DX009 (ip), vehicle: saline", "value": "123 % of control"}
    ]},
    {"smiles": "CCC(=O)/C=C/C1=C(C)CCCC1(C)C", "values": [
      {"measurement": "T/C", "setting": "dose: 100.0 mg/kg/injection, schedule: Q01DX009 (ip), vehicle: saline with Tween-80", "value": "96 % of control"},
      {"measurement": "T/C", "setting": "dose: 100.0 mg/kg/injection, schedule: Q04DX003 (ip), vehicle: saline", "value": "95 % of control"},
      {"measurement": "T/C", "setting": "dose: 200.0 mg/kg/injection, schedule: Q01DX009 (ip), vehicle: saline with Tween-80", "value": "93 % of control"},
      {"measurement": "T/C", "setting": "dose: 200.0 mg/kg/injection, schedule: Q04DX003 (ip), vehicle: saline", "value": "97 % of control"},
      {"measurement": "T/C", "setting": "dose: 400.0 mg/kg/injection, schedule: Q04DX003 (ip), vehicle: saline", "value": "97 % of control"}
    ]},
    {"smiles": "Cc1cccc(OC(=O)Nc2ccccc2C)c1", "values": [
      {"measurement": "T/C", "setting": "dose: 100.0 mg/kg/injection, schedule: Q04DX002 (ip), vehicle: Klucel (hydroxypropylcellulose) (HPC)", "value": "103 % of control"},
      {"measurement": "T/C", "setting": "dose: 200.0 mg/kg/injection, schedule: Q04DX002 (ip), vehicle: Klucel (hydroxypropylcellulose) (HPC)", "value": "118 % of control"},
      {"measurement": "T/C", "setting": "dose: 400.0 mg/kg/injection, schedule: Q04DX002 (ip), vehicle: Klucel (hydroxypropylcellulose) (HPC)", "value": "100 % of control"}
    ]},
    {"smiles": "Cc1ccc(Nc2nnc(N=Nc3ccccc3)s2)cc1C", "values": [
      {"measurement": "T/C", "setting": "dose: 100.0 mg/kg/injection, schedule: Q01DX009 (ip), vehicle: other", "value": "101 % of control"},
      {"measurement": "T/C", "setting": "dose: 200.0 mg/kg/injection, schedule: Q01DX009 (ip), vehicle: other", "value": "98 % of control"},
      {"measurement": "T/C", "setting": "dose: 400.0 mg/kg/injection, schedule: Q01DX009 (ip), vehicle: other", "value": "98 % of control"}
    ]},
    {"smiles": "Cc1cccc(C(Cc2ccc(N3C(N)=NC(N)=NC3(C)C)cc2)C(=O)Nc2ccc(S(=O)(=O)F)cc2)c1", "note": "(stereo unspecified)", "values": [
      {"measurement": "T/C", "setting": "dose: 100.0 mg/kg/injection, schedule: Q01DX001 (ip), vehicle: saline", "value": "108 % of control"},
      {"measurement": "T/C", "setting": "dose: 200.0 mg/kg/injection, schedule: Q01DX001 (ip), vehicle: saline", "value": "110 % of control"},
      {"measurement": "T/C", "setting": "dose: 400.0 mg/kg/injection, schedule: Q01DX001 (ip), vehicle: saline", "value": "98 % of control"}
    ]},
    {"smiles": "CC[n+]1cccc2cc(NC(=O)c3ccc(NC(=O)c4ccc(C(=O)Nc5ccc6c(ccc[n+]6CC)c5)cc4)cc3)ccc21", "values": [
      {"measurement": "T/C", "setting": "dose: 0.5 mg/kg/injection, schedule: Q01DX Z (ip), vehicle: carboxymethylcellulose (CMC)", "value": "94 % of control"},
      {"measurement": "T/C", "setting": "dose: 1.0 mg/kg/injection, schedule: Q01DX Z (ip), vehicle: carboxymethylcellulose (CMC)", "value": "96 % of control"},
      {"measurement": "T/C", "setting": "dose: 2.5 mg/kg/injection, schedule: Q01DX Z (ip), vehicle: carboxymethylcellulose (CMC)", "value": "120 % of control"},
      {"measurement": "T/C", "setting": "dose: 5.0 mg/kg/injection, schedule: Q01DX Z (ip), vehicle: carboxymethylcellulose (CMC)", "value": "156 % of control"},
      {"measurement": "T/C", "setting": "dose: 8.9 mg/kg/injection, schedule: Q01DX Z (ip), vehicle: carboxymethylcellulose (CMC)", "value": "154 % of control"},
      {"measurement": "T/C", "setting": "dose: 13.3 mg/kg/injection, schedule: Q01DX Z (ip), vehicle: carboxymethylcellulose (CMC)", "value": "164 % of control"},
      {"measurement": "T/C", "setting": "dose: 20.0 mg/kg/injection, schedule: Q01DX Z (ip), vehicle: carboxymethylcellulose (CMC)", "value": "164 % of control"},
      {"measurement": "T/C", "setting": "dose: 30.0 mg/kg/injection, schedule: Q01DX Z (ip), vehicle: carboxymethylcellulose (CMC)", "value": "174 % of control"}
    ]},
    {"smiles": "CCCCCCCCCCCCC(CC(=O)O)C(=O)N(C)CC(O)C(O)C(O)C(O)CO", "note": "(stereo unspecified)", "values": [
      {"measurement": "T/C", "setting": "[1]", "value": "106 % of control"},
      {"measurement": "T/C", "setting": "[2]", "value": "100 % of control"},
      {"measurement": "T/C", "setting": "[3]", "value": "110 % of control"}
    ]},
    {"smiles": "CN(C)c1ccc(/C=C/C=N/N=C/c2ccccc2O)cc1", "values": [
      {"measurement": "T/C", "setting": "dose: 75.0 mg/kg/injection, schedule: Q01DX001 (ip), vehicle: other", "value": "89 % of control"},
      {"measurement": "T/C", "setting": "dose: 150.0 mg/kg/injection, schedule: Q01DX001 (ip), vehicle: other", "value": "94 % of control"}
    ]},
    {"smiles": "Oc1ccc2ccccc2c1/C=N/N=C/c1c(O)ccc2ccccc12", "values": [
      {"measurement": "T/C", "setting": "dose: 100.0 mg/kg/injection, schedule: Q04DX003 (ip), vehicle: Klucel (hydroxypropylcellulose) (HPC)", "value": "96 % of control"},
      {"measurement": "T/C", "setting": "dose: 200.0 mg/kg/injection, schedule: Q04DX003 (ip), vehicle: Klucel (hydroxypropylcellulose) (HPC)", "value": "91 % of control"},
      {"measurement": "T/C", "setting": "dose: 300.0 mg/kg/injection, schedule: Q01DX009 (ip), vehicle: Klucel (hydroxypropylcellulose) (HPC)", "value": "98 % of control"},
      {"measurement": "T/C", "setting": "dose: 400.0 mg/kg/injection, schedule: Q04DX003 (ip), vehicle: Klucel (hydroxypropylcellulose) (HPC)", "value": "88 % of control"}
    ]}
  ]
}
